Laboratory results from ChEMBL document CHEMBL4339254, “Lamellarin Sulfates from the Pacific Tunicate Didemnum ternerratum” (J Nat Prod, 2019).

These compounds were tested on HCT-116 (assay: Cytotoxicity in human HCT116 cells assessed as reduction in cell viability incubated for 48 hrs by MTS assay). Conditions: Homo sapiens, HCT-116, 48 h; read-out: IC50; call rule not given here.
Format: functional, cell-based

Row | SMILES | IC50 [µM]
1 | COc1cc(-c2c3n(c4c(=O)oc5cc(O)c(OC)cc5c24)CCc2c-3cc(OC)c(OC)c2O)ccc1O | 4.3
2 | COc1cc(-c2c3c4cc(OC)c(O)cc4oc(=O)c3n3ccc4cc(OS(=O)(=O)O)c(OC)cc4c23)ccc1O | 9.7

Same assay, conditions: hct-116

Row | SMILES | IC50
3 | COc1ccc(-c2c3n(c4c(=O)oc5cc(OS(=O)(=O)O)c(O)cc5c24)CCc2cc(OC)c(O)cc2-3)cc1O | Not Active
4 | COc1cc(-c2c3n(c4c(=O)oc5cc(OS(=O)(=O)O)c(OC)cc5c24)CCc2c-3cc(OC)c(OC)c2O)ccc1O | Not Active
5 | COc1cc(-c2c3n(c4c(=O)oc5cc(OS(=O)(=O)O)c(OC)cc5c24)CCc2cc(OC)c(OC)cc2-3)ccc1O | Not Active
6 | COc1cc(-c2c3c4cc(OC)c(OS(=O)(=O)O)cc4oc(=O)c3n3ccc4cc(OC)c(OC)cc4c23)ccc1O | Not Active
7 | COc1ccc(-c2c3n(c4c(=O)oc5cc(OS(=O)(=O)O)c(OC)cc5c24)CCc2c-3cc(OC)c(OC)c2O)cc1O | Not Active
